Source: publication PMC10592247 (Molecular cancer therapeutics, 2023)

Experiments:
[1] = system: 22Rv1 cells; assay: Dextran uptake assay; format: cell-based; conditions: 2µM for 30min before assay, TMR-dextran 1 mg/mL 30min
[2] = system: LNCaP-abl cells; assay: Cell viability after pre-incubation with endocytosis pathway inhibitors; format: cell-based; conditions: EIPA 50µM 30min, then compound 10µM, PrestoBlue after 3 days, n=2

| SMILES | macropinocytosis (TMR-dextran uptake) [1] | antiproliferative activity after EIPA pre-incubation [2] |
| --- | --- | --- |
| CC(C)(C)C(=O)Nc1ccc2c(c1)C(=O)C(=O)c1ccccc1-2 [SF16170, SF1670] | enhanced macropinocytosis |  |
| CNC(=O)c1ccc(N2C(=S)N(c3ccc(C#N)c(C(F)(F)F)c3)C(=O)C2(C)C)cc1F [enzalutamide, Enzalutamide] |  | did not affect |
| C#C[C@]1(O)CC[C@H]2[C@@H]3CCC4=CC(=O)CC[C@]4(C)[C@H]3CC[C@@]21C [ethisterone, Ethisterone] |  | did not affect |
